Results reported in the supplement of paper PMC11451515.

How the values were obtained:
[1] = test system: NOMO1; assay: cell viability relative to DMSO control; higher = less cytotoxic; conditions: RPMI 5 mM glucose + 10% FBS, 48 h
Procedure, shortened: (§1)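 NOMO1 or SEM cells were plated at 500 cells/well and P12-Ichikawa cells at 1000 cells/well in 1536-well plates (5 μl), after each leukemia line had been adapted for at least four passages in each medium. Pin dosing delivered library compounds in DMSO at 11 threefold concentrations, 47 μM to 0.79 nM. CellTiter-Glo One luminescence was read after 48 h at 37°C. Viability is reported as a per-plate percentage of DMSO wells, with cell-free wells as background.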

[2] = test system: SEM cells; assay: as above; conditions: 48 h
Procedure, shortened: as §1

[3] = test system: NOMO1; assay: AUC of viability dose-response curve (% viability x log10 dose units); higher = less sensitive; conditions: 48 h
Procedure, shortened: (§2)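 Viability of medium-adapted leukemia cells was measured by CellTiter-Glo One luminescence after 48 h at 37°C with library compounds in DMSO. Doses were 11 threefold steps from 47 μM to 0.79 nM, in 1536-well plates at 500 or 1000 cells/well. Signals were normalised per plate to DMSO and cell-free wells and fitted with a four-parameter log-logistic model on log10 dose. Area under the curve was integrated by trapezoidal rule, with curves exceeding full viability scaled and failed quality-control curves removed.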

[4] = test system: P12-Ichikawa; assay: as above; conditions: 48 h
Procedure, shortened: as §2

[5] = test system: SEM cells; assay: as above; conditions: 48 h
Procedure, shortened: as §2

[6] = test system: P12-Ichikawa; assay: cell viability relative to DMSO control; higher = less cytotoxic; conditions: 48 h
Procedure, shortened: as §1

OCc1ccccc1O[C@@H]1O[C@H](CO)[C@@H](O)[C@H](O)[C@H]1O
Conditions	AUC of viability dose-response curve	cell viability [%]
[1], 0.000781 µM	–	120
[1], 0.00234 µM	–	116
[1], 0.00702 µM	–	139
[1], 0.0211 µM	–	128
[1], 0.0632 µM	–	126
[1], 0.19 µM	–	139
[1], 0.569 µM	–	138
[1], 1.71 µM	–	127
[1], 5.12 µM	–	129
[1], 15.4 µM	–	106
[1], 46.1 µM	–	98.7
[3], HPLM + 10% dialyzed FBS	447	–
[3], RPMI 5 mM glucose + 10% FBS	463	–
[3], RPMI 5 mM glucose + 10% dialyzed FBS	458	–
[4], HPLM + 10% dialyzed FBS	464	–
[4], RPMI 5 mM glucose + 10% FBS	448	–
[4], RPMI 5 mM glucose + 10% dialyzed FBS	459	–
[5], HPLM + 10% dialyzed FBS	430	–
[5], RPMI 5 mM glucose + 10% FBS	372	–
[5], RPMI 5 mM glucose + 10% dialyzed FBS	426	–

[2], RPMI 5 mM glucose + 10% dialyzed FBS
Conditions	cell viability [%]
0.000781 µM	101
0.00234 µM	121
0.00702 µM	118
0.0211 µM	121
0.0632 µM	136
0.19 µM	148
0.569 µM	121
1.71 µM	117
5.12 µM	97.5
15.4 µM	61.8
46.1 µM	48.8

C\C1=N\N=C(\C2=CC=C(N)C=C2)C3=CC4=C(OCO4)C=C3C1
[2], HPLM + 10% dialyzed FBS
Conditions	cell viability [%]
0.000781 µM	129
0.00234 µM	115
0.00702 µM	122
0.0211 µM	136
0.0632 µM	126
0.19 µM	123
0.569 µM	131
1.71 µM	131
5.12 µM	150
15.4 µM	138
46.1 µM	107

AUC of viability dose-response curve
Conditions	[3]	[4]	[5]
HPLM + 10% dialyzed FBS	471	469	467
RPMI 5 mM glucose + 10% FBS	471	465	470
RPMI 5 mM glucose + 10% dialyzed FBS	464	465	464

CNC(=O)c1ccc(Nc2ncc(C(F)(F)F)c(NCc3nccnc3N(C)[S+](C)(=O)[O-])n2)cc1
cell viability [%], HPLM + 10% dialyzed FBS
Conditions	[2]	[6]
0.000781 µM	115	120
0.00234 µM	105	127
0.00702 µM	124	117
0.0211 µM	127	118
0.0632 µM	125	124
0.19 µM	113	114
0.569 µM	99.8	122
1.71 µM	63.2	125
5.12 µM	23.5	109
15.4 µM	16.7	89.4
46.1 µM	20.9	102

AUC of viability dose-response curve
Conditions	[3]	[4]	[5]
HPLM + 10% dialyzed FBS	446	457	348
RPMI 5 mM glucose + 10% FBS	412	447	317
RPMI 5 mM glucose + 10% dialyzed FBS	443	438	314

CC(C)NCC(O)c1ccc(O)c(O)c1 (stereo not drawn)
AUC of viability dose-response curve
Conditions	[3]	[4]	[5]
HPLM + 10% dialyzed FBS	376	389	455
RPMI 5 mM glucose + 10% FBS	389	394	427
RPMI 5 mM glucose + 10% dialyzed FBS	391	407	457

COC(=O)C1=C(C)NC(C)=C(C(=O)OCCN2CCN(C(c3ccccc3)c3ccccc3)CC2)C1c1cccc([N+](=O)[O-])c1.Cl.Cl (stereo not drawn)
AUC of viability dose-response curve
Conditions	[3]	[4]	[5]
HPLM + 10% dialyzed FBS	472	447	463
RPMI 5 mM glucose + 10% FBS	464	464	421
RPMI 5 mM glucose + 10% dialyzed FBS	445	442	453

CCN1CCCC1CNC(=O)c1cc(S(=O)(=O)CC)c(N)cc1OC (stereo not drawn)
AUC of viability dose-response curve
Conditions	[3]	[4]	[5]
HPLM + 10% dialyzed FBS	458	463	474
RPMI 5 mM glucose + 10% FBS	459	461	474
RPMI 5 mM glucose + 10% dialyzed FBS	469	469	453

COCCCOc1cc(C[C@@H](C[C@H](N)[C@@H](O)C[C@H](C(=O)NCC(C)(C)C(N)=O)C(C)C)C(C)C)ccc1OC
AUC of viability dose-response curve
Conditions	[3]	[4]	[5]
HPLM + 10% dialyzed FBS	457	473	473
RPMI 5 mM glucose + 10% FBS	474	471	461
RPMI 5 mM glucose + 10% dialyzed FBS	461	475	458

NC/1=N/C(=O)N/C=C1F
[2], HPLM + 10% dialyzed FBS
Conditions	cell viability [%]
0.000781 µM	118
0.00234 µM	145
0.00702 µM	123
0.0211 µM	134
0.0632 µM	118
0.19 µM	125
0.569 µM	125
1.71 µM	136
5.12 µM	130
15.4 µM	120
46.1 µM	103

AUC of viability dose-response curve
Conditions	[3]	[4]	[5]
HPLM + 10% dialyzed FBS	417	455	468
RPMI 5 mM glucose + 10% FBS	432	438	464
RPMI 5 mM glucose + 10% dialyzed FBS	405	432	429

Cc1cccc(C)c1NC(=O)CN1CCCC1=O
[2], HPLM + 10% dialyzed FBS
Conditions	cell viability [%]
0.000781 µM	115
0.00234 µM	121
0.00702 µM	125
0.0211 µM	123
0.0632 µM	125
0.19 µM	122
0.569 µM	126
1.71 µM	129
5.12 µM	122
15.4 µM	116
46.1 µM	103

AUC of viability dose-response curve
Conditions	[3]	[4]	[5]
HPLM + 10% dialyzed FBS	463	444	470
RPMI 5 mM glucose + 10% FBS	458	434	461
RPMI 5 mM glucose + 10% dialyzed FBS	470	458	431

COc1ccc2c(c[n+](C)c3c4cc5c(cc4ccc23)OCO5)c1OC
AUC of viability dose-response curve
Conditions	[3]	[4]	[5]
HPLM + 10% dialyzed FBS	438	423	407
RPMI 5 mM glucose + 10% FBS	447	406	397
RPMI 5 mM glucose + 10% dialyzed FBS	449	404	402

CN1C(=O)C(Cc2c[nH]c3ccccc23)NC1=S (stereo not drawn)
AUC of viability dose-response curve
Conditions	[3]	[4]	[5]
HPLM + 10% dialyzed FBS	467	458	437
RPMI 5 mM glucose + 10% FBS	448	450	405
RPMI 5 mM glucose + 10% dialyzed FBS	451	461	422

O=C(O)c1ccc2cc(-c3ccc(O)c(C45CC6CC(CC(C6)C4)C5)c3)ccc2c1
cell viability [%]
Conditions	[2]	[6]
HPLM + 10% dialyzed FBS, 0.000781 µM	–	124
HPLM + 10% dialyzed FBS, 0.00234 µM	–	119
HPLM + 10% dialyzed FBS, 0.00702 µM	–	124
HPLM + 10% dialyzed FBS, 0.0211 µM	–	121
HPLM + 10% dialyzed FBS, 0.0632 µM	–	121
HPLM + 10% dialyzed FBS, 0.19 µM	–	107
HPLM + 10% dialyzed FBS, 0.569 µM	–	66.5
HPLM + 10% dialyzed FBS, 1.71 µM	–	19.2
HPLM + 10% dialyzed FBS, 5.12 µM	–	10.4
HPLM + 10% dialyzed FBS, 15.4 µM	–	9.2
HPLM + 10% dialyzed FBS, 46.1 µM	–	7.25
RPMI 5 mM glucose + 10% FBS, 0.000781 µM	120	116
RPMI 5 mM glucose + 10% FBS, 0.00234 µM	129	123
RPMI 5 mM glucose + 10% FBS, 0.00702 µM	114	134
RPMI 5 mM glucose + 10% FBS, 0.0211 µM	118	122
RPMI 5 mM glucose + 10% FBS, 0.0632 µM	118	117
RPMI 5 mM glucose + 10% FBS, 0.19 µM	93.1	96.9
RPMI 5 mM glucose + 10% FBS, 0.569 µM	41.7	57.1
RPMI 5 mM glucose + 10% FBS, 1.71 µM	19.8	16
RPMI 5 mM glucose + 10% FBS, 5.12 µM	10.5	8.71
RPMI 5 mM glucose + 10% FBS, 15.4 µM	9.46	8.22
RPMI 5 mM glucose + 10% FBS, 46.1 µM	8.21	5.78

AUC of viability dose-response curve
Conditions	[3]	[4]	[5]
HPLM + 10% dialyzed FBS	323	299	287
RPMI 5 mM glucose + 10% FBS	330	285	282
RPMI 5 mM glucose + 10% dialyzed FBS	311	277	266
